Experimental data from paper PMC5485989, “Role of Free Radicals and Biotransformation in Trichloronitrobenzene-Induced Nephrotoxicity In Vitro” (International Journal of Molecular Sciences, 2017).
Marks after values point to notes of the source that are not given here.

Tests used:
[1] = system: isolated renal cortical cells (IRCC); experiment: Time and concentration cytotoxicity study, LDH release in IRCC; format: cell-based, male Fischer 344 rats; conditions: for Cytotoxicity (LDH release), time and concentration response: 0.5 or 1.0 mM, 15-120 min, significant difference from DMSO control, p < 0.05
Procedure: To determine the comparative nephrotoxic potential of the four TCNBs in IRCC, a time and concentration response study was performed starting at 15 min and 0.5 or 1.0 mM and adjusting the times tested based on the results (Figure 2).

renal cortical slices = conditions: cited from earlier work
[2] = system: isolated renal cortical cells (IRCC); experiment: Effect of antioxidant or biotransformation inhibitor pretreatment on TCNB cytotoxicity, LDH release in IRCC; conditions: for Effect of pretreatment on 3,4,5-TCNB cytotoxicity: 0.5 mM 3,4,5-TCNB, 30 min exposure; for Effect of pretreatment on 3,4,5-TCNB cytotoxicity / Effect of pretreatment on 2,3,4-TCNB cytotoxicity / Effect of pretreatment on 2,4,5-TCNB cytotoxicity / Effect of pretreatment on 2,4,6-TCNB cytotoxicity: IRCC; for Effect of pretreatment on 2,3,4-TCNB cytotoxicity: 1.0 mM 2,3,4-TCNB, 60 min exposure; for Effect of pretreatment on 2,4,5-TCNB cytotoxicity: 1.0 mM 2,4,5-TCNB; for Effect of pretreatment on 2,4,5-TCNB cytotoxicity / Effect of pretreatment on 2,4,6-TCNB cytotoxicity: 90 min exposure; for Effect of pretreatment on 2,4,6-TCNB cytotoxicity: 1.0 mM 2,4,6-TCNB; for % of lactate dehydrogenase release, PreTx: pretreatment compound alone, no TCNB; for % of lactate dehydrogenase release, PreTx / % of lactate dehydrogenase release, PreTx + TCNB: mean ± S.E., n = 4
Procedure: Untreated rats were anesthetized with pentobarbital (75 mg/kg, i.p.) and isolated renal cortical cells (IRCC) were obtained by using the collagenase perfusion method. Initial cell viability was determined by measuring trypan blue (2% w/v) exclusion and lactate dehydrogenase (LDH) release. […] IRCC were then exposed to various concentrations of a TCNB (0, 0.5, or 1.0 mM) for 15, 30, 60, 90, or 120 min. Following the incubation period, flasks were removed and placed on ice. Samples (0.5 mL) were taken for LDH release assays. Briefly, the samples were centrifuged (3000× g, 3 min), the was supernatant decanted and saved, and the pellet was disrupted with 1 mL of 10% Triton X-100 solution to release cellular LDH activity. LDH activity was then determined in each fraction (supernatant and pellet) as previously described using a kinetic assay based on the amount of NADH produced from NAD [57]. The LDH released was expressed as % of total (supernatant plus pellet).
Concentrations used in these experiments were 0.5 mM (3,4,5-TCNB) or 1.0 mM (2,3,4-, 2,4,5- and 2,4,6-TCNB). Incubation times with a TCNB added were 30 min (3,4,5-TCNB), 60 min (2,3,4-TCNB), or 90 min (2,4,5- and 2,4,6-TCNB). The pretreatment times and concentrations for all of the pretreatments are shown below in Table 5.

[3] = Table 1 experiments, 60 min incubation
[4] = Table 2 experiments, 90 min incubation
[5] = pretreatment compound followed by 1.0 mM 2,3,4-TCNB, 60 min
[6] = pretreatment compound followed by 1.0 mM 2,4,5-TCNB, 90 min
[7] = pretreatment compound followed by 1.0 mM 2,4,6-TCNB, 90 min
[8] = Table 3 experiments, 90 min incubation

Compound: O=[N+]([O-])c1cc(Cl)c(Cl)cc1Cl [2,4,5-TCNB]
- Cytotoxicity (LDH release), time and concentration response [1]: induced cytotoxicity at 90 min (0.5 mM) and 120 min (0.5 and 1.0 mM), but not at 60 min with either concentration

Compound: O=[N+]([O-])c1c(Cl)cc(Cl)cc1Cl [2,4,6-TCNB]
- Cytotoxicity (LDH release), time and concentration response [1]: cytotoxicity was observed at 30 and 60 min (0.5 and 1.0 mM) but not at 15 min with either concentration
- Concentration at which cytotoxicity was evident ([1]; as early as 30 min): 500 µM

Compound: O=[N+]([O-])c1ccc(Cl)c(Cl)c1 [3,4-DCNB, 3,4-dichloronitrobenzene]
- Lowest concentration reducing pyruvate-stimulated gluconeogenesis and increasing LDH release (renal cortical slices): 0.5 mM

Compound: O=C1O[C@H]([C@@H](O)CO)C(O)=C1O [Ascorbate]
- Effect of pretreatment on 3,4,5-TCNB cytotoxicity [2]: attenuation of 3,4,5-TCNB cytotoxicity
- Effect of pretreatment on 2,3,4-TCNB cytotoxicity [2]: attenuation of 2,3,4-TCNB cytotoxicity
- Effect of pretreatment on 2,4,5-TCNB cytotoxicity [2]: attenuation of 2,4,5-TCNB cytotoxicity
- Effect of pretreatment on 2,4,6-TCNB cytotoxicity [2]: attenuation of 2,4,6-TCNB cytotoxicity
- % of lactate dehydrogenase release, PreTx [2, 3]: 12 ± 1%
- % of lactate dehydrogenase release, PreTx [2, 4]: 12 ± 1%
- % of lactate dehydrogenase release, PreTx + TCNB [2, 5]: 14 ± 1 ^d %
- % of lactate dehydrogenase release, PreTx + TCNB [2, 6]: 16 ± 2 ^d %
- % of lactate dehydrogenase release, PreTx + TCNB [2, 7]: 17 ± 2 ^c,d %

Compound: N[C@@H](CCC(=O)N[C@@H](CS)C(=O)NCC(=O)O)C(=O)O [Glutathione]
- Effect of pretreatment on 3,4,5-TCNB cytotoxicity [2]: attenuation of 3,4,5-TCNB cytotoxicity
- Effect of pretreatment on 2,3,4-TCNB cytotoxicity [2]: attenuation of 2,3,4-TCNB cytotoxicity
- Effect of pretreatment on 2,4,5-TCNB cytotoxicity [2]: attenuation of 2,4,5-TCNB cytotoxicity
- Effect of pretreatment on 2,4,6-TCNB cytotoxicity [2]: attenuation of 2,4,6-TCNB cytotoxicity
- % of lactate dehydrogenase release, PreTx [2, 3]: 13 ± 1%
- % of lactate dehydrogenase release, PreTx [2, 4]: 15 ± 1%
- % of lactate dehydrogenase release, PreTx + TCNB [2, 5]: 14 ± 1 ^d %
- % of lactate dehydrogenase release, PreTx + TCNB [2, 6]: 17 ± 2 ^d %
- % of lactate dehydrogenase release, PreTx + TCNB [2, 7]: 20 ± 1 ^c,d %

Compound: COc1ccc2c(c1)c(CC(=O)O)c(C)n2C(=O)c1ccc(Cl)cc1 [Indomethacin]
- Effect of pretreatment on 3,4,5-TCNB cytotoxicity [2]: reduced
- Effect of pretreatment on 2,3,4-TCNB cytotoxicity [2]: reduced
- Effect of pretreatment on 2,4,6-TCNB cytotoxicity [2]: reduced
- % of lactate dehydrogenase release, PreTx [2, 3]: 13 ± 1%
- % of lactate dehydrogenase release, PreTx [2, 4]: 16 ± 2%
- % of lactate dehydrogenase release, PreTx [2, 8]: 16 ± 1 ^c %
- % of lactate dehydrogenase release, PreTx + TCNB [2, 5]: 16 ± 2 ^c,d %
- % of lactate dehydrogenase release, PreTx + TCNB [2, 6]: 21 ± 2 ^c %
- % of lactate dehydrogenase release, PreTx + TCNB [2, 7]: 21 ± 1 ^c,d %

Compound: NNC(=O)c1ccncc1 [Isoniazid]
- Effect of pretreatment on 3,4,5-TCNB cytotoxicity [2]: at least some attenuation
- Effect of pretreatment on 2,3,4-TCNB cytotoxicity [2]: reduced
- % of lactate dehydrogenase release, PreTx [2, 3]: 11 ± 1%
- % of lactate dehydrogenase release, PreTx [2, 4]: 10 ± 1%
- % of lactate dehydrogenase release, PreTx + TCNB [2, 5]: 19 ± 1 ^c,d %
- % of lactate dehydrogenase release, PreTx + TCNB [2, 6]: 34 ± 1 ^c,d %
- % of lactate dehydrogenase release, PreTx + TCNB [2, 7]: 28 ± 2 ^c %

Compound: O=C(O)CC(S)C(=O)O (stereo not drawn) [Mercaptosuccinate]
- Effect of pretreatment on 3,4,5-TCNB cytotoxicity [2]: reduced
- Effect of pretreatment on 2,3,4-TCNB cytotoxicity [2]: reduced
- % of lactate dehydrogenase release, PreTx [2, 3]: 10 ± 1%
- % of lactate dehydrogenase release, PreTx [2, 4]: 17 ± 1 ^c %
- % of lactate dehydrogenase release, PreTx [2, 8]: 16 ± 1%
- % of lactate dehydrogenase release, PreTx + TCNB [2, 5]: 10 ± 1 ^d %
- % of lactate dehydrogenase release, PreTx + TCNB [2, 6]: 24 ± 1 ^c %
- % of lactate dehydrogenase release, PreTx + TCNB [2, 7]: 31 ± 1 ^c %

Compound: Cn1cc[nH]c1=S [Methimazole]
- Effect of pretreatment on 3,4,5-TCNB cytotoxicity [2]: reduced
- Effect of pretreatment on 2,3,4-TCNB cytotoxicity [2]: reduced
- Effect of pretreatment on 2,4,6-TCNB cytotoxicity [2]: reduced
- % of lactate dehydrogenase release, PreTx [2, 3]: 9 ± 1%
- % of lactate dehydrogenase release, PreTx [2, 4]: 14 ± 2%
- % of lactate dehydrogenase release, PreTx [2, 8]: 17 ± 1%
- % of lactate dehydrogenase release, PreTx + TCNB [2, 5]: 11 ± 1 ^d %
- % of lactate dehydrogenase release, PreTx + TCNB [2, 6]: 23 ± 2 ^c %
- % of lactate dehydrogenase release, PreTx + TCNB [2, 7]: 31 ± 2 ^c %

Compound: CC(C)(C(=O)c1cccnc1)c1cccnc1 [Metyrapone]
- Effect of pretreatment on 3,4,5-TCNB cytotoxicity [2]: reduced
- Effect of pretreatment on 2,4,6-TCNB cytotoxicity [2]: reduced
- % of lactate dehydrogenase release, PreTx [2, 3]: 12 ± 1%
- % of lactate dehydrogenase release, PreTx [2, 4]: 16 ± 1 ^c %
- % of lactate dehydrogenase release, PreTx [2, 8]: 15 ± 1%
- % of lactate dehydrogenase release, PreTx + TCNB [2, 5]: 17 ± 1 ^c %
- % of lactate dehydrogenase release, PreTx + TCNB [2, 6]: 28 ± 2 ^c %
- % of lactate dehydrogenase release, PreTx + TCNB [2, 7]: 27 ± 2 ^c %

Compound: CC(=O)N[C@@H](CS)C(=O)O [NAC, N-acetyl-L-cysteine]
- Effect of pretreatment on 3,4,5-TCNB cytotoxicity [2]: attenuation of 3,4,5-TCNB cytotoxicity
- Effect of pretreatment on 2,3,4-TCNB cytotoxicity [2]: attenuation of 2,3,4-TCNB cytotoxicity
- Effect of pretreatment on 2,4,5-TCNB cytotoxicity [2]: attenuation of 2,4,5-TCNB cytotoxicity
- Effect of pretreatment on 2,4,6-TCNB cytotoxicity [2]: not reduced
- % of lactate dehydrogenase release, PreTx [2, 3]: 13± 1%
- % of lactate dehydrogenase release, PreTx [2, 4]: 15 ± 1%
- % of lactate dehydrogenase release, PreTx [2, 8]: 13 ± 1%
- % of lactate dehydrogenase release, PreTx + TCNB [2, 5]: 16 ± 1 ^c,d %
- % of lactate dehydrogenase release, PreTx + TCNB [2, 6]: 17 ± 1 ^d %
- % of lactate dehydrogenase release, PreTx + TCNB [2, 7]: 23 ± 2 ^c %

Compound: CCCCOCCOCCOCc1cc2c(cc1CCC)OCO2 [PiBx, Piperonyl butoxide]
- Effect of pretreatment on 3,4,5-TCNB cytotoxicity [2]: reduced
- Effect of pretreatment on 2,3,4-TCNB cytotoxicity [2]: reduced
- % of lactate dehydrogenase release, PreTx [2, 3]: 10 ± 1%
- % of lactate dehydrogenase release, PreTx [2, 4]: 11 ± 2%
- % of lactate dehydrogenase release, PreTx [2, 8]: 13 ± 1%
- % of lactate dehydrogenase release, PreTx + TCNB [2, 5]: 12 ± 1 ^c,d %
- % of lactate dehydrogenase release, PreTx + TCNB [2, 6]: 24 ± 3 ^c %
- % of lactate dehydrogenase release, PreTx + TCNB [2, 7]: 22 ± 1 ^c %

Compound: CCN(CC)C(=S)S [diethyldithiocarbamate, Diethyldithiocarbamate]
- Effect of pretreatment on 3,4,5-TCNB cytotoxicity [2]: at least some attenuation

Compound: CCCCCCCCN [n-Octylamine, N-Octylamine]
- Effect of pretreatment on 3,4,5-TCNB cytotoxicity [2]: reduced
- Effect of pretreatment on 2,3,4-TCNB cytotoxicity [2]: reduced
- % of lactate dehydrogenase release, PreTx [2, 3]: 16 ± 1 ^c %
- % of lactate dehydrogenase release, PreTx [2, 4]: 11 ± 2%
- % of lactate dehydrogenase release, PreTx [2, 8]: 11 ± 1%
- % of lactate dehydrogenase release, PreTx + TCNB [2, 5]: 19 ± 1 ^c,d %
- % of lactate dehydrogenase release, PreTx + TCNB [2, 6]: 32 ± 2 ^c %
- % of lactate dehydrogenase release, PreTx + TCNB [2, 7]: 29 ± 3 ^c %

Compound: Nc1ccc(S(=O)(=O)Nc2ccnn2-c2ccccc2)cc1 [sulfaphenazole, Sulfaphenazole]
- Effect of pretreatment on 3,4,5-TCNB cytotoxicity [2]: at least some attenuation

Compound: S=P(N1CC1)(N1CC1)N1CC1 [thio-tepa, Thio-tepa]
- Effect of pretreatment on 3,4,5-TCNB cytotoxicity [2]: at least some attenuation

Compound: Cc1c(C)c2c(c(C)c1O)CC[C@@](C)(CCC[C@H](C)CCC[C@H](C)CCCC(C)C)O2 [α–Tocopherol, α-Tocopherol]
- Effect of pretreatment on 3,4,5-TCNB cytotoxicity [2]: attenuation of 3,4,5-TCNB cytotoxicity
- Effect of pretreatment on 2,3,4-TCNB cytotoxicity [2]: attenuation of 2,3,4-TCNB cytotoxicity
- Effect of pretreatment on 2,4,5-TCNB cytotoxicity [2]: attenuation of 2,4,5-TCNB cytotoxicity
- Effect of pretreatment on 2,4,6-TCNB cytotoxicity [2]: not reduced
- % of lactate dehydrogenase release, PreTx [2, 3]: 11± 1%
- % of lactate dehydrogenase release, PreTx [2, 4]: 13 ± 1%
- % of lactate dehydrogenase release, PreTx [2, 8]: 14 ± 1%
- % of lactate dehydrogenase release, PreTx + TCNB [2, 5]: 12 ± 2 ^d %
- % of lactate dehydrogenase release, PreTx + TCNB [2, 6]: 14 ± 3 ^d %
- % of lactate dehydrogenase release, PreTx + TCNB [2, 7]: 25 ± 2 ^c %
